Source: patent US20240393292A1, “ALLERGY ANTIGEN AND EPITOPE THEREOF” (HOYU CO., LTD., priority 2019, published 2024)
“Also recorded” adds a separate entry of the source.

Tests used:
[1] = system: IgE antibodies from patients; assay: Wheat epitope mapping (3): alanine/glycine scanning; format: binding, human; settings: from analysis of epitope mapping (A) to (C); many samples
Procedure: From the amino acid sequences identified above in (A), a library of peptide fragments in which amino-terminal amino acids were substituted one by one by alanine (or glycine when the original amino acid was alanine) according to a technique called alanine/glycine scanning (Non Patent Literature 5) was prepared by the same technique as described above. The presence or absence of binding of an IgE antibody present in the serum of a patient to each peptide fragment was measured by the same technique as described above.
Chemiluminescence intensity in images obtained by measurement was converted into a numeric value in the same manner as in (A). Numeric values determined from images obtained from secondary antibody measurement values were used as control values. The control value of each peptide was subtracted from numeric values determined from images obtained from results about the serum of 49 patients. When values obtained using the sequences (SEQ ID NOs: 29, 131, 191, 281, 346, 414, 493, 562, 640, 706, 776, 899, 974, 1010, 1089, 1142, 1166, 1209, 1257, 1297, 1367, 1403, 1508, 1566, 1598, 1608, 1685, 1753, 1789, 1836, 1895, 1977, 2004, 2027, 2068, 2154, 2217, 2265, 2309, 2342, 2419, 2491, 2545, 2613, 2631, 2674, 2701, 2774, 2809 and 2830) serving as the basis of alanine/glycine scanning were defined as 100%, it was determined that: a peptide having a value of the difference that was less than 30% had no binding activity against IgE antibodies; a peptide having a value of the difference that was 30% or more and less than 50% had binding activity, albeit poor, against IgE antibodies; a peptide having a value of the difference that was 50% or more and less than 70% had binding activity, albeit somewhat poor, against IgE antibodies; and a peptide having a value of the difference that was 70% or more had equivalent or good binding activity against IgE antibodies and was thus a peptide had remaining binding activity against IgE antibodies.
By analysis of the results of (A) to (C), common sequences important for exertion of original antigenicity were found in regions important for binding to IgE antibodies from patients, in the sequences serving as the basis of alanine/glycine scanning.

[2] = system: IgE antibodies from patients having allergies to each food; assay: Confirmation of epitope cross-reactivity by ELISA with biotinylated peptides; format: binding, human
Description: Amino acids other than amino acids important for maintaining binding to IgE antibodies, in each of the epitope sequences found in the wheat proteins in Table 2 were defined as any given amino acid (X). NCBI was searched for proteins having the key sequences having the amino acid residues X in cooking ingredient allergens carried in common by each of the patients. As a result, an amino acid sequence contained in a sequence in each food described in the column “Food with which cross-reactivity was confirmed” in Table 2 was identified as one example.
The binding activity of peptides comprising the amino acid sequences described in the column “Synthesis sequence” and the rightmost column “SEQ ID NO” of Table 2 against IgE antibodies from patients having allergies to each food described in the column “Food with which cross-reactivity was confirmed” in Table 2 was confirmed by ELISA. The peptides were synthesized such that the peptides were N-terminally biotinylated by the Fmoc method.
To be specific, ELISA was carried out according to the following procedure. • (1) The concentrations of the biotinylated peptides were adjusted to 10 μg/mL with PBST (0.1% Tween 20). • (2) Each peptide solution was added at 20 μL to each well of a 384-well plate coated with streptavidin, and shaken at room temperature for one hour. After collection of the solution, the wells were washed with PBST five times. • (3) Pierce Protein-Free (PBS) Blocking Buffer (produced by Thermo) was added at 40 μL thereto and shaken at room temperature for one hour. After removal of the solution, the wells were washed with PBST five times. • (4) 2% serum/Canget SignalSolution I (produced by TOYOBO) was added at 20 μL thereto and shaken at room temperature for one hour. After removal of the solution, the wells were washed with PBST five times. • (5) A diluted secondary antibody solution (1:10000, Canget SignalSolution II (produced by TOYOBO)) was added at 20 μL thereto and shaken at room temperature for one hour. After removal of the solution, the wells were washed with PBST five times. • (6) 1-Step Ultra TMB-ELISA (produced by Thermo) was added at 20 μL thereto and shaken at room temperature for 15 minutes. • (7) 2 M H2SO4 was added at 20 μL thereto. Absorbance at 450 nm was measured.
Peptides having these amino acid sequences were prepared by the same procedure as described in Example 4 (A), and the presence or absence of binding thereto of IgE antibodies present in the serum of an allergic patient and the serum of a nonallergic subject was measured. The serum of two nonallergic subjects was measured, and values obtained by dividing the measurement values by an average value thereof were used.
The bar graph of each figure depicts “absorbance of the allergic patient/absorbance of the nonallergic patient (healthy subject)”. The names of the cooking ingredients described in each graph are the names of cooking ingredients containing a polypeptide comprising an amino acid sequence serving as the basis of each synthetic sequence used.

[3] = synthetic sequence, Graph No. 3, epitope of patient P8

## SEQ ID NO: 61: polypeptide consisting of 4 amino acid residues, among sequences of (E1) (QPIQ; REGION 1..4: note = epitope)
[1]
  short polypeptide confirmed as epitope binding to IgE antibodies: confirmed as epitopes binding to IgE antibodies in many samples

## 29 (QQILWYHQQQPIQQQ; REGION 1..15: note = epitope) [compound 29]
[2]; serum IgE of patient P7 (WDEIA), epitope E1, LMW-D8(LMW-GS) B2BZD1, Spot No. 9, key sequence XXXXXXXQXXXIQQX (SEQ ID NO 45), Graph No. 1
  Food in which cross-reactivity was confirmed: Wheat
[2]; serum IgE of patient P13 (WDEIA), epitope E1, LMW-D8(LMW-GS) B2BZD1, Spot No. 9, key sequence XXXXXYXQXXXIQQX (SEQ ID NO 62), Graph No. 1
  Food in which cross-reactivity was confirmed: Wheat
[2]; serum IgE of patient P36 (WDEIA), epitope E1, LMW-D8(LMW-GS) B2BZD1, Spot No. 9, key sequence XXXXXXXQXXXIQQX (SEQ ID NO 122), Graph No. 1
  Food in which cross-reactivity was confirmed: Wheat

## NEPSQLSLDQNAQGL
[2]; epitope E16 (Fructose-bisphosphate aldolase W5CCA9, Spot No. 4), patient P21, key sequence XXXXQXXXDQNXXXX (SEQ ID NO 1144), Graph No. 2
  Food in which cross-reactivity was confirmed: timothy

## 2910 (SLAEYTVRTLQRTVP; REGION 1..15: note = epitope) [compound 2910]
[2]; Graph No. 2, synthetic sequence listed under patient P16
  Food in which cross-reactivity was confirmed: Wheat/rye/barley/; also recorded: timothy

## SEQ ID NO: 345: polypeptide consisting of 4 amino acid residues, among sequences of (E4) (QPFP; REGION 1..4: note = epitope)
[1]
  short polypeptide confirmed as epitope binding to IgE antibodies: confirmed as epitopes binding to IgE antibodies in many samples

## GLFGTN (GIFGTN)
[2]; synthetic sequence tested for IgE binding by ELISA, Graph No. 3, epitope row of patient P8
  Food in which cross-reactivity was confirmed: Wheat/barley/rye 3

## 2889 (ILFEETLYQS; REGION 1..10: note = epitope) [compound 2889]
[2]; epitope E10 (Fructose-bisphosphate aldolase W5CCA9), listed under patient P8, Graph No. 3
  Food in which cross-reactivity was confirmed: Wheat/rye/barley

## SEQ ID NO: 238: polypeptide consisting of 4 amino acid residues, among sequences of (E3) (PFPQ; REGION 1..4: note = epitope)
[1]
  short polypeptide confirmed as epitope binding to IgE antibodies: confirmed as epitopes binding to IgE antibodies in many samples

## QPIQ (REGION 1..4: note = epitope) [SEQ ID NO: 30]
[1]
  short polypeptide confirmed as epitope binding to IgE antibodies: confirmed as epitopes binding to IgE antibodies in many samples

## 2922 (GIDKRV; REGION 1..6: note = epitope) [compound 2922]
[2]; [3]
  Food in which cross-reactivity was confirmed: Wheat/barley

## SEQ ID NO: 222: polypeptide consisting of 4 amino acid residues, among sequences of (E3) (QQPF; REGION 1..4: note = epitope)
[1]
  short polypeptide confirmed as epitope binding to IgE antibodies: confirmed as epitopes binding to IgE antibodies in many samples

## SEQ ID NO: 58: polypeptide consisting of 4 amino acid residues, among sequences of (E1) (PIQQ; REGION 1..4: note = epitope)
[1]
  short polypeptide confirmed as epitope binding to IgE antibodies: confirmed as epitopes binding to IgE antibodies in many samples

## 2923 (KRVIERFEK; REGION 1..9: note = epitope) [compound 2923]
[2]; [3]
  Food in which cross-reactivity was confirmed: Wheat/barley
